Experimental data reported in ChEMBL document CHEMBL1201862, “PubChem BioAssay data set” (2004).
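96-well plates; 48 h exposure; 5 concentrations. Endpoints by linear interpolation between flanking doses. Not reached: highest tested concentration assigned. GI50 = concentration required for 50% inhibition of growth.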 Activity calls are given as the source filed them. No stated cut-off is given here; in the data, active = GI50 up to about 1.1 µM and inactive = higher.

How the values were obtained:
Assay in all cases: growth of human tumour cells (NCI), 48 h
A549 = tested on: A549
DMS-114 = tested on: DMS-114
HCT-15 = tested on: HCT-15
HL-60 = tested on: HL-60
HOP-62 = tested on: HOP-62
IGROV-1 = tested on: IGROV-1
K562 = tested on: K562
KM-20L2 = tested on: KM-20L2
M14 = tested on: M14
Malme-3M = tested on: Malme-3M
OVCAR-3 = tested on: OVCAR-3
OVCAR-4 = tested on: OVCAR-4
OVCAR-5 = tested on: OVCAR-5
OVCAR-8 = tested on: OVCAR-8
SNB-75 = tested on: SNB-75
SNB-78 = tested on: SNB-78
UACC-62 = tested on: UACC-62

Measured: GI50

COCCCNC(=O)C1C(=O)C(=O)N(CCCOC)C1=O (stereo unspecified)
> 100 µM: HCT-15
inactive: A549 > 100 µM | DMS-114 > 100 µM | HL-60 > 100 µM | HOP-62 > 100 µM | IGROV-1 > 100 µM | K562 > 100 µM | KM-20L2 > 100 µM | M14 > 100 µM | Malme-3M > 100 µM | OVCAR-3 > 100 µM | OVCAR-4 > 100 µM | OVCAR-5 > 100 µM | OVCAR-8 > 100 µM | SNB-75 > 100 µM | SNB-78 > 100 µM | UACC-62 > 100 µM

C=C=C(C(=O)OC)[S+]([O-])c1ccccc1[N+](=O)[O-] (stereo unspecified)
59 µM: HCT-15
inactive: A549 > 100 µM | DMS-114 > 100 µM | HL-60 75.2 µM | HOP-62 > 100 µM | IGROV-1 > 100 µM | K562 59.2 µM | KM-20L2 > 100 µM | M14 > 100 µM | Malme-3M > 100 µM | OVCAR-3 > 100 µM | OVCAR-4 > 100 µM | OVCAR-5 > 100 µM | OVCAR-8 > 100 µM | SNB-75 > 100 µM | SNB-78 > 100 µM | UACC-62 > 100 µM

CCc1cccc(C(C)C)c1NC(=O)C(=O)C(CC(=O)Nc1ccc(Cl)c(Cl)c1)C(=O)OC (stereo unspecified)
inactive: A549 > 100 µM | DMS-114 > 100 µM | HL-60 > 100 µM | HOP-62 35.2 µM | IGROV-1 > 100 µM | K562 10.9 µM | KM-20L2 26.2 µM | M14 54.3 µM | Malme-3M > 100 µM | OVCAR-3 > 100 µM | OVCAR-4 > 100 µM | OVCAR-5 > 100 µM | OVCAR-8 > 100 µM | SNB-75 > 100 µM | SNB-78 > 100 µM | UACC-62 2.18 µM
14.8 µM: HCT-15

N=C(N)N/N=C(/CC1OC(=O)c2ccccc21)c1ccc2ccccc2c1 (stereo unspecified)
15.3 µM: HCT-15
inactive: DMS-114 12.9 µM | HL-60 17.8 µM | HOP-62 18.5 µM | IGROV-1 22.1 µM | K562 24.3 µM | KM-20L2 24.7 µM | M14 16.7 µM | Malme-3M 14.5 µM | OVCAR-3 17.5 µM | OVCAR-4 17.2 µM | OVCAR-5 30.1 µM | OVCAR-8 15.8 µM | SNB-75 20 µM | SNB-78 > 100 µM | UACC-62 17.9 µM

O=c1[nH]c(Br)nc2c(N3CCCCC3)c[nH]c12
> 100 µM: HCT-15
inactive: A549 > 100 µM | DMS-114 > 100 µM | HL-60 > 100 µM | HOP-62 > 100 µM | IGROV-1 > 100 µM | K562 > 100 µM | KM-20L2 > 100 µM | M14 > 100 µM | Malme-3M > 100 µM | OVCAR-3 > 100 µM | OVCAR-4 > 100 µM | OVCAR-5 > 100 µM | OVCAR-8 > 100 µM | SNB-75 > 100 µM | SNB-78 > 100 µM | UACC-62 > 100 µM

O=C(Cc1nc2ccccc2o1)C(=O)Nc1cccc(C(F)(F)F)c1
inactive: A549 > 100 µM | DMS-114 > 100 µM | HL-60 > 100 µM | HOP-62 > 100 µM | IGROV-1 > 100 µM | K562 > 100 µM | KM-20L2 > 100 µM | M14 > 100 µM | Malme-3M > 100 µM | OVCAR-3 > 100 µM | OVCAR-4 > 100 µM | OVCAR-5 > 100 µM | OVCAR-8 > 100 µM | SNB-75 > 100 µM | SNB-78 > 100 µM | UACC-62 > 100 µM
> 100 µM: HCT-15
